From paper PMC6429712, “Discovery of a natural small-molecule compound that suppresses tumor EMT, stemness and metastasis by inhibiting TGFβ/BMP signaling in triple-negative breast cancer” (Journal of Experimental & Clinical Cancer Research : CR, 2019)

Legend:
Test in all cases: in vitro kinase activity assay
Type in all cases: biochemical
BMPR1B = BMPR1B (Homo sapiens, UniProt O00238)
TGFBR1 = target: T1, TGFBR1 (Homo sapiens, UniProt P36897)
T1 sequence (P36897 34-503): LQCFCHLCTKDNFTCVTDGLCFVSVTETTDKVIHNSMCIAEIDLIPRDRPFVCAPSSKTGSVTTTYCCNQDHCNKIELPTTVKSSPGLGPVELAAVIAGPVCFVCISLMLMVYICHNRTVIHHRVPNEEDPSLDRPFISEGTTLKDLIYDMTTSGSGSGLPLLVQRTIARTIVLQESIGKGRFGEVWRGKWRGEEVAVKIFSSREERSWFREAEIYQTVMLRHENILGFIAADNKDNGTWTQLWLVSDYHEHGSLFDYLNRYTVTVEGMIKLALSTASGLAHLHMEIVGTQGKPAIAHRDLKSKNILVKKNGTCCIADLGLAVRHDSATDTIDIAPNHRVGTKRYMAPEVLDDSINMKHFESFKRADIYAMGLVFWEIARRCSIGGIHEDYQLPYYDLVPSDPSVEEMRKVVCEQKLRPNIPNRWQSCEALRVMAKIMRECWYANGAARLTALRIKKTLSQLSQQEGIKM

BMPR2 = target: T2, BMPR2 (Homo sapiens, UniProt Q13873)
T2 sequence (Q13873 27-1038): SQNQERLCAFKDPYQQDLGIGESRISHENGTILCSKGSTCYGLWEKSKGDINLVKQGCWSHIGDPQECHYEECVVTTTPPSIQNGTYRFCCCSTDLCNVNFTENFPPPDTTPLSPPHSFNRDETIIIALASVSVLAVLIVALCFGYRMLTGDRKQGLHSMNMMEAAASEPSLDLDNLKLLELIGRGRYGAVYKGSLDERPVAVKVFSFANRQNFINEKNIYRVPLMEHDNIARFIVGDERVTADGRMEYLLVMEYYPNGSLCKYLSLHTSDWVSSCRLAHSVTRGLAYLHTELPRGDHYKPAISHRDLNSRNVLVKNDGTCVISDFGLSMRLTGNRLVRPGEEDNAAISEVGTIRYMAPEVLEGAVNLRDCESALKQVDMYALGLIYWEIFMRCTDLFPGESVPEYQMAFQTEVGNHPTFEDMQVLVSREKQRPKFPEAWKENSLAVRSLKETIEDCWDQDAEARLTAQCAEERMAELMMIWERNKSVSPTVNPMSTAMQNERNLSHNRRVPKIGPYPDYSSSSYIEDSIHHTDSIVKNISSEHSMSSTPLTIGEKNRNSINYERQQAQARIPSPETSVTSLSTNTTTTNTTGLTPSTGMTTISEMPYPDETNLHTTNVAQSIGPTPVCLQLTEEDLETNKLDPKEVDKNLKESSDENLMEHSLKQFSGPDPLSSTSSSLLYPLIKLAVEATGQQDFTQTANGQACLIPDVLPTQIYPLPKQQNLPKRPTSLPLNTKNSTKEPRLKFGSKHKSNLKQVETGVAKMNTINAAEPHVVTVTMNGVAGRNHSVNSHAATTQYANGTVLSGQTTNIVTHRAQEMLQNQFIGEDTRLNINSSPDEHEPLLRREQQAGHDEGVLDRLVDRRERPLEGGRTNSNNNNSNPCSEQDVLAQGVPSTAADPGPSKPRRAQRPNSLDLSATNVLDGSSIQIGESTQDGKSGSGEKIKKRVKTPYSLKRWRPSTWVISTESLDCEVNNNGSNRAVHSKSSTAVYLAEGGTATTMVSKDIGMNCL

BMPR1A = BMPR1A (Homo sapiens, UniProt P36894)
BMPR1A, sequence (P36894 24-532): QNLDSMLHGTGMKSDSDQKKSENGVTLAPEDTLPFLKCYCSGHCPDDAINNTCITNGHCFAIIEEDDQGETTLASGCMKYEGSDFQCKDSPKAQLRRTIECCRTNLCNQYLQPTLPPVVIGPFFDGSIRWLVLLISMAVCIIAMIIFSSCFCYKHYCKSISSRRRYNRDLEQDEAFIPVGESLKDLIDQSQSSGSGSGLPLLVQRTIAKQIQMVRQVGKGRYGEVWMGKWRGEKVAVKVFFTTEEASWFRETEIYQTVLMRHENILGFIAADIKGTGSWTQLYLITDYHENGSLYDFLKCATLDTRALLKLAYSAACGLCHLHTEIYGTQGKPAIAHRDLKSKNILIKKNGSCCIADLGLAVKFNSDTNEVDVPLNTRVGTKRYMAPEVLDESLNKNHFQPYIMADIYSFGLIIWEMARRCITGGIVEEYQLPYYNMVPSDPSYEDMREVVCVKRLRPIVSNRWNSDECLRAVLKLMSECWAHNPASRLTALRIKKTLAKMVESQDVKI

BMPR1B, sequence (O00238 14-502): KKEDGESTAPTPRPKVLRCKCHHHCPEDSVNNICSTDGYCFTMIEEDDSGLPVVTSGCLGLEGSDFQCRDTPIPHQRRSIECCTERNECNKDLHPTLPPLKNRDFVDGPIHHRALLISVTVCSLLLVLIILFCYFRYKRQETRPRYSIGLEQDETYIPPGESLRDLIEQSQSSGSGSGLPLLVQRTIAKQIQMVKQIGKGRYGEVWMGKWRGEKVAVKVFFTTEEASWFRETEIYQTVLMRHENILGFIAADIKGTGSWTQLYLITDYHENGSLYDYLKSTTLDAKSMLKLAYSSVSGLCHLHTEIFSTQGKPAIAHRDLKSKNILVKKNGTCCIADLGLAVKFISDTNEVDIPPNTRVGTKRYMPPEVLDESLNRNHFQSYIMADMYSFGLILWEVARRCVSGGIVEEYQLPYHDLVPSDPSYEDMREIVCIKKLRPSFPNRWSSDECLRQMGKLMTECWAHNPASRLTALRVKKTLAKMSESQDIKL

- IC50 (BMPR1B): 1100 nM
- IC50 (TGFBR1): 1040 nM
- IC50 (BMPR2): 201 nM
- IC50 (BMPR1A): 806 nM
SMILES: O=C1Nc2ccc(O)cc2/C1=C\c1ccc(O)c(O)c1 [ZL170, (E)-3-(3,4-dihydroxybenzylidene)-5-hydroxyindolin-2-one]
